Experimental findings from PMC8222254, “Self-assembly of an anion receptor with metal-dependent kinase inhibition and potent in vitro anti-cancer properties” (Nature Communications, 2021) are described below.

Assay [1] deals with HCT116 p53-/-. The experiment in a line: Confocal imaging of autophagic cells (CYTO-ID). It is filed as cell-based, human. The settings on record: 3.125 µM, 40 h. The method, then: Cells were seeded in Lumox chamber slides (8-well, Sarstedt) at a density of 1.25 × 10^4 cells/well (ARPE-19) or 5.625 × 10^4 cells/well (HCT116 p53^−/− and HCT116 p53^+/+). 24 h after seeding, cells were treated with 3.125 μM of [L2Cu3]^6+, [L2Zn3]^6+, [L2Mn3]^6+, or vehicle control for 40 h before removal and addition of CYTO-ID Green autophagic dye (1:500 dilution, Enzo Life Sciences) and Hoechst 3342 nuclear counter stain for 30 min at 37 °C. Media was then replaced before imaging using a Zeiss LSM880 confocal laser scanning microscope.

Assay [2] deals with recombinant human AMPK (pT172 AMPKα1, pS108 AMPKβ1) (Homo sapiens, UniProt Q13131). The experiment in a line: In vitro phosphatase assay with recombinant kinase, immunoblotting. It is filed as biochemical. The settings on record: 50 μM complex, 4 h, with ATP. The method, then:
800 ng of purified recombinant human AMPK (α1β2γ1) or Src kinase (MRC PPU, International Centre for Kinase Profiling, University of Dundee) was incubated with 50 μM [L2Cu3]^6+, [L2Zn3]^6+, or vehicle control in 50 mM Tris HCl pH 7.5 containing 50 μM ATP for 4 h at 37 °C. For [L2Zn3]^6+ time course and concentration titration experiments, 800 ng recombinant human AMPK was used (α1β2γ1 AMPK isoform for pT172 AMPKα1 detection or α2β1γ1 AMPK isoform for pS108 AMPKβ1 detection). For evaluation of ATP dependency and influence of AMP, 50 µM ATP was replaced with 50 µM AMP or omitted. Reactions were stopped by addition of Laemmli’s buffer (Biorad) to 1x and heating at 95 °C for 5 min before analysis by SDS PAGE and immunoblotting for detection of specific phosphorylated amino acids of AMPK and Src proteins.
(§1) Protein lysates and recombinant proteins were resolved on 15% SDS polyacrylamide gels. Proteins were electroblotted onto nitrocellulose membrane by wet transfer in 1xTris Glycine buffer (Biorad) at 35 mA overnight at room temperature. After blocking of membranes, these were incubated with primary antibody overnight at 4 °C before addition of rabbit or mouse secondary antibody (HRP-conjugated; 1:5000, Dako P0448 or P0260) for 1 h at room temperature and development of blots by enhanced chemiluminescence. Primary antibodies were: anti-Src (total) (Cell Signalling Technology #2123 1:1000), anti-phosphorylated Src (Y527) (Cell Signalling Technology #21055 1:1000), anti-phosphorylated Src (Y416) (Cell Signalling Technology #69435 1:1000), anti-AMPKα (total) (Cell Signalling Technology #2532 1:1000), anti-phosphorylated AMPKα (T172) (Cell Signalling Technology #2535 1:1000), anti-AMPKβ1 (total) (Cell Signalling Technology #4150 1:1000), anti-phosphorylated AMPKβ1 (S108) (abcam ab156890 1:500), anti-phospho-Tyr (pan) (Cell Signalling Technology #8954 1:2000), anti-p53 (Santa Cruz, DO-1 clone, 1:1000,), anti-phosphorylated LDH-A (Y10) (Cell Signalling Technology #8176 1:1000), anti-LDH-A/B (total) (abcam ab134187 1:5000), anti-β-actin (Merck MAB1501, 1:40,000). Quantification of signals was performed by densitometry using Image J software. Uncropped and unprocessed scans are provided in the Source Data file.

For assay [3], the system named is HCT116 p53+/+. Briefly: Immunoblotting of whole cell protein lysates. It is filed as cell-based, human. Here is the method:
(§2) ARPE-19 and HCT116 p53^+/+ cells were seeded at a density of 3 × 10^5 (ARPE-19) or 5 × 10^5 (HCT116 p53^+/+) in T25 flasks. 24 h after seeding, cells were treated with 10 µM of [L2Cu3]^6+, [L2Zn3]^6+, or vehicle control for 4 h (Fig. 8b) or 5 μM of [L2Cu3]^6+, [L2Zn3]^6+, or vehicle control for 40 h (Fig. 10). Cells were then harvested and lysed in RIPA buffer (Sigma) with the protein concentration of lysates determined by the BCA assay.
as §1
Background: In western blotting, separated proteins are transferred to a membrane and probed.

The test system of assay [4] is ARPE-19. Briefly: Immunoblotting of whole cell protein lysates. It is filed as cell-based, human. The settings on record: for levels of p53: ARPE19, 5 µM, 40 h. The method, then: as §2, §1
Assay [5] is described as follows: UV-Vis study of hydrolysis of 4-nitrophenyl phosphate. The settings on record: HEPES pH 7.4 / DMSO, blank 0.0129. The method, then: UV–Vis studies were carried out on a Cary 60 UV–Vis spectrophotometer with Thermo cycler attachment and the wavelength range of 800–250 nm was scanned every hour for 43 h whilst the solution was heated at a constant temperature of 37 °C. Progress of hydrolysation of 4-nitrophenyl phosphate to 4-nitrophenol was measured by monitoring the increase in absorption at the wavelength of 400 nm (typical for 4-nitrophenol). HEPES buffer was prepared at pH 7.4. Solutions were prepared by dissolving the ligand L (3.1 mg, 0.005 mmol) and the relevant metal salt (1.5 equivalents with respect to ligand) in DMSO (5 mL). 4-nitrophenyl phosphate (18.6 mg, 0.050 mmol) was dissolved in HEPES buffer (~10 mL, 60 mmol). These solutions were then combined and made up volumetrically to 50 mL with HEPES buffer. Where required Bu4NH2PO4 (0.5 equivalents with respect to ligand) was added to the HEPES buffer.
5. UV-Vis studies of the hydrolysis of disodium 4-nitrophenylphosphate.
UV-Vis studies were carried out on a Cary 60 UV-Vis spectrophotometer with Thermo cycler attachment and the wavelength range of 800 – 250 nm was scanned every hour for 43 hours whilst the solution was heated at a constant temperature of 37 °C. Progress of hydrolysation of 4-nitrophenyl phosphate to 4-nitrophenol was measured by monitoring the increase in absorption at the wavelength of 400 nm (typical for 4-nitrophenol). HEPES buffer was prepared at pH 7.4.
Solutions were prepared by dissolving the ligand L (3.1 mg, 0.005 mmol) and the relevant metal salt (1.5 equiv w.r.t. ligand) in DMSO (5 mL). 4 -nitrophenyl phosphate (18.6 mg, 0.050 mmol) was dissolved in HEPES buffer (~10 mL , 60 mmol) These solutions were then combined and made up volumetrically to 50 mL with HEPES buffer.
(1.5 equiv w.r.t. ligand) in DMSO (5 mL). Tetrabutylammonium phosphate (0.84 mg, 0.0025 mmol) was dissolved in HEPES buffer (~1 mL, 60 mmol) and these solutions were combined. […]

Chain of recombinant human AMPK (pT172 AMPKα1, pS108 AMPKβ1) (Q13131 whole entry, canonical isoform): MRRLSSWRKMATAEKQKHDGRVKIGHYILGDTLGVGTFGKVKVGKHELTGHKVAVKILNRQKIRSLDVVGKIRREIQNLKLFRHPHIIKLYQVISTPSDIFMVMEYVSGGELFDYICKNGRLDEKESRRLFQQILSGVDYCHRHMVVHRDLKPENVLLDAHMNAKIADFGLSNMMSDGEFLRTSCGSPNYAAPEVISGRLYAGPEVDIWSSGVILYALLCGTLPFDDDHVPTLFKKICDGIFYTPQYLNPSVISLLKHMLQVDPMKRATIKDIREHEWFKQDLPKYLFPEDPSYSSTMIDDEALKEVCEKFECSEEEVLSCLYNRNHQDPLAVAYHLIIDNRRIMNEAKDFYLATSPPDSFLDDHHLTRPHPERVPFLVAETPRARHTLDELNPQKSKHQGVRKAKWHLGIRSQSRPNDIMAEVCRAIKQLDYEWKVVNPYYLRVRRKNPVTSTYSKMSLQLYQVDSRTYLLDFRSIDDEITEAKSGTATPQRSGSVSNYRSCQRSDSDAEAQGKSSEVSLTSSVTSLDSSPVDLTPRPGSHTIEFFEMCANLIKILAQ
Chain of recombinant human AMPK (pT172 AMPKα1, pS108 AMPKβ1) (O43741 whole entry partner, canonical isoform): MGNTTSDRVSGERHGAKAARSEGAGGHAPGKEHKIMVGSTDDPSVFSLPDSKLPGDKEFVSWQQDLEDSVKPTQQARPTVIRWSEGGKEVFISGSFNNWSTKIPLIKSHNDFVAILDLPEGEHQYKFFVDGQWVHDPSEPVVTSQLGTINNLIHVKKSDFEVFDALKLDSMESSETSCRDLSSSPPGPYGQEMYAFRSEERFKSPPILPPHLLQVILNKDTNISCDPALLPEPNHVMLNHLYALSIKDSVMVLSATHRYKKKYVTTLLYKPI
Chain of recombinant human AMPK (pT172 AMPKα1, pS108 AMPKβ1) (P54619 whole entry partner, canonical isoform): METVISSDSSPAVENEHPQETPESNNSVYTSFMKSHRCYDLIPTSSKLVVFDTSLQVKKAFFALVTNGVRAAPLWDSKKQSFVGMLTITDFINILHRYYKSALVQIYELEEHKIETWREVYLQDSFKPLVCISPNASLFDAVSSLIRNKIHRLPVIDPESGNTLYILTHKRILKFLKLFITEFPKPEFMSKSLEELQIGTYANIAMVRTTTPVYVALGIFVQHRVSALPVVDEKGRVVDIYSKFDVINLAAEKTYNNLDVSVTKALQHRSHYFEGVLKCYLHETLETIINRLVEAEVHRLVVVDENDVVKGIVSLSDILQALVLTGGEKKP

Consider `[Cu+2].[Cu+2].[Cu+2].c1ccc(-c2csc(NCCN(CCNc3nc(-c4ccccn4)cs3)CCNc3nc(-c4ccccn4)cs3)n2)nc1.c1ccc(-c2csc(NCCN(CCNc3nc(-c4ccccn4)cs3)CCNc3nc(-c4ccccn4)cs3)n2)nc1` [[L2Cu3]6+], for which the “induction of vacuoles / autophagy (CYTO-ID)” value in assay [1] is recorded as “no or little autophagy”; in assay [1] (listed as [L2Cu3]^6+), “did not”. Moreover, in assay [2], the “T172P levels of AMPKα detectable by immunoblotting” value is reported as “significantly reduced”. In assay [3] (HCT116, 5 µM, 40 h), the “increase of p53 levels” value is ~ 1.7 fold. Besides, the “levels of p53” value in assay [4] is on record as “decreased”.

Turning to `[Mn+2].[Mn+2].[Mn+2].c1ccc(-c2csc(NCCN(CCNc3nc(-c4ccccn4)cs3)CCNc3nc(-c4ccccn4)cs3)n2)nc1.c1ccc(-c2csc(NCCN(CCNc3nc(-c4ccccn4)cs3)CCNc3nc(-c4ccccn4)cs3)n2)nc1` [[L2Mn3]6+], the “induction of vacuoles / autophagy (CYTO-ID)” value in assay [1] is listed as “most pronounced”; in assay [1] (listed as Mn^2+ complex) it was “also induced autophagy”. For the same compound, the “Concentration of 4-nitrophenol after 24 hours at 37°C” value (shortened to “Concentration of 4-nitrophenol”) in assay [5] was determined as 0.1185 mM.

Turning to `CC(=O)[O-].CC(=O)[O-].CC(=O)[O-].O=P([O-])([O-])[O-].[Zn+2].[Zn+2].[Zn+2].c1ccc(-c2csc(NCCN(CCNc3nc(-c4ccccn4)cs3)CCNc3nc(-c4ccccn4)cs3)n2)nc1.c1ccc(-c2csc(NCCN(CCNc3nc(-c4ccccn4)cs3)CCNc3nc(-c4ccccn4)cs3)n2)nc1` [[L2Zn3(PO4)]3+], the “Concentration of 4-nitrophenol” value in assay [5] came out at 0.0164 mM.

For `CC(=O)[O-].CC(=O)[O-].CC(=O)[O-].CC(=O)[O-].CC(=O)[O-].CC(=O)[O-].[Zn+2].[Zn+2].[Zn+2].c1ccc(-c2csc(NCCN(CCNc3nc(-c4ccccn4)cs3)CCNc3nc(-c4ccccn4)cs3)n2)nc1.c1ccc(-c2csc(NCCN(CCNc3nc(-c4ccccn4)cs3)CCNc3nc(-c4ccccn4)cs3)n2)nc1` [[L2Zn3]6+], in assay [1], the “induction of vacuoles / autophagy (CYTO-ID)” value is “induced the appearance of vacuoles”. Also, the “T172P levels of AMPKα detectable by immunoblotting” value in assay [2] is given as “significantly reduced”. Moreover, in assay [3] (HCT116, 5 µM, 40 h), the “cellular levels of T172P of AMPKα relative to total AMPKα” value is “increased” and the “increase of p53 levels” value is listed as ~ 2.7 fold. In assay [3] (HCT116, 5 µM, 40 h, pan phospho-tyrosine antibody), the “decrease in total levels of Tyr-phosphorylated proteins” value is reported as ~ 10%. In assay [3] (HCT116 cancer cells, 10 µM, 4 h), the “cellular phospho-Thr172 AMPKα levels” value is “decreased”. In assay [4], the “levels of p53” value was “decreased”. Besides, the “p-Y10 LDH-A” value in assay [4] (ARPE-19, 10µM, 4h, n=1) was “modestly decrease”. In addition, the “Concentration of 4-nitrophenol” value in assay [5] was found to be 0.0361 mM.
